# Experiments:
# [1] = tested on: E. coli ATCC 11229; assay: Growth inhibition test (DGHM, Essai 2, Tables A-C), 72 h at 37°C; non/A/B/C = without or with inactivating substances A, B, C; assay type: cell-based, Escherichia coli
# Protocol: (§1) Un autre essai a été réalisé à partir des solutions suivantes : • 100 ml d'une solution à 0,1 % de digluconate de chlorhexidine (pH 6) et • 100 ml d'une solution à 0,1 % de Bardac 22®.
# L'activité de ces solutions, seules ou en combinaison a été plus particulièrement testée vis-à-vis de Staphylococcus aureus ATCC 6538, Escherichia coli ATCC 11229 et Candida albicans ATCC 10231.
# (§2) Les tests ont été réalisés conformément au protocole décrit dans le Chapitre I/2.1 et 2.2 de Richtlinien für die Prüfung und Bewertung chemischer Desinfektionsverfahren der DGHM, Stand 1.1., 1981).
# Les Tableaux A, B et C illustrent respectivement l'activité bactéricide et fongicide d'une solution aqueuse à 0,1 % de digluconate de chlorhexidine, d'une solution aqueuse à 0,1 % de Bardac 22® et d'un mélange à part égale des deux composés. Les protocoles dont ces Tableaux illustrent les résultats comprennent une incubation de 72 heures à 37°C et l'utilisation, comme témoins, des substances inactivantes suivantes : A : Tween® 80 3 % + lécithine 0,3 % + cystéine 0,1 %; B : Tween® 80 3 % + saponine 3 % + cystéine 0,1 % + histidine 0,1 %; C : Tween® 80 3 % + lécithine 0,3 % + histidine 0,1 % + thiosulfate de sodium 0,5 %.
# Dans ces Tableaux, le signe "+" indique une croissance et le signe "-" l'absence de croissance.
# [2] = tested on: S. aureus ATCC 6538; assay: Disinfection time test (Essai 2, Tables D-F), reaction at 22°, subcultures 72 h at 37°C; assay type: cell-based, Staphylococcus aureus
# Protocol: as §1, §2
# (§3) Les tests dont les résultats sont illustrés aux Tableaux D, E et F ont été réalisés à une température de réaction de 22° avec une incubation des sous-cultures 72 heures à 37°C avec comme substances inactivantes : Tween® 80 3 % + saponine 3 % + cystéine 0,1 % + histidine 0,1 %; ces Tableaux illustrent respectivement l'activité bactéricide et fongicide d'une solution aqueuse à 0,1 % de digluconate de chlorhexidine, d'une solution aqueuse à 0,1 % de Bardac 22® et d'un mélange à part égale des deux composés et montrent l'action des antiseptiques précités, en fonction du temps de contact, et font apparaître la même synergie d'action de l'association que ci-dessus, dans la mesure où l'association des deux composés permet de diminuer significativement leur concentration, pour l'obtention d'un même effet. TABLEAU D
# [3] = tested on: E. coli ATCC 11229; assay: as above; assay type: cell-based, Escherichia coli
# Protocol: as §1, §2, §3
compound,measurement,setting,value
"[H]/N=C(\N/C(=N/[H])NCCCCCCNC(=N)NC(=N)Nc1ccc(Cl)cc1)Nc1ccc(Cl)cc1 [Chlorhexidine, digluconate de chlorhexidine, reference compound]",croissance,"[1]; Conc. 0,1 % (vol/vol), A",+
same,croissance,"[1]; Conc. 0,1 % (vol/vol), B",+
same,croissance,"[1]; Conc. 0,1 % (vol/vol), C",+
same,croissance,"[1]; Conc. 0,1 % (vol/vol), non",+
same,croissance,"[1]; Conc. 0,05 % (vol/vol), A",+
same,croissance,"[1]; Conc. 0,5 % (vol/vol), A",+
same,croissance,"[1]; Conc. 0,05 % (vol/vol), B",+
same,croissance,"[1]; Conc. 0,5 % (vol/vol), B",+
same,croissance,"[1]; Conc. 0,05 % (vol/vol), C",+
same,croissance,"[1]; Conc. 0,5 % (vol/vol), C",+
same,croissance,"[1]; Conc. 0,05 % (vol/vol), non",+
same,croissance,"[1]; Conc. 0,5 % (vol/vol), non",-
same,croissance,"[1]; Conc. 1,0 % (vol/vol), A",+
same,croissance,"[1]; Conc. 1,0 % (vol/vol), B",+
same,croissance,"[1]; Conc. 1,0 % (vol/vol), C",+
same,croissance,"[1]; Conc. 1,0 % (vol/vol), non",-
same,croissance,"[1]; Conc. 0,00625 % (vol/vol), A",+
same,croissance,"[1]; Conc. 0,00625 % (vol/vol), B",+
same,croissance,"[1]; Conc. 0,00625 % (vol/vol), C",+
same,croissance,"[1]; Conc. 0,00625 % (vol/vol), non",+
same,croissance,"[1]; Conc. 0,0125 % (vol/vol), A",+
same,croissance,"[1]; Conc. 0,0125 % (vol/vol), B",+
same,croissance,"[1]; Conc. 0,0125 % (vol/vol), C",+
same,croissance,"[1]; Conc. 0,0125 % (vol/vol), non",+
same,croissance,"[1]; Conc. 0,025 % (vol/vol), A",+
same,croissance,"[1]; Conc. 0,025 % (vol/vol), B",+
same,croissance,"[1]; Conc. 0,025 % (vol/vol), C",+
same,croissance,"[1]; Conc. 0,025 % (vol/vol), non",+
same,concentration en substance active inhibant la croissance,[1]; antiseptique seul,"0,0005%"
same,croissance,"[2]; Conc. 0,1 % (vol/vol), 1 min",+
same,croissance,"[2]; Conc. 0,1 % (vol/vol), 3 min",+
same,croissance,"[2]; Conc. 0,1 % (vol/vol), 5 min",+
same,croissance,"[2]; Conc. 0,1 % (vol/vol), 15 min",+
same,croissance,"[2]; Conc. 0,1 % (vol/vol), 30 min",+
same,croissance,"[2]; Conc. 0,1 % (vol/vol), 60 min",+
same,croissance,"[2]; Conc. 0,05 % (vol/vol), 1 min",+
same,croissance,"[2]; Conc. 0,5 % (vol/vol), 1 min",+
same,croissance,"[2]; Conc. 0,05 % (vol/vol), 3 min",+
same,croissance,"[2]; Conc. 0,5 % (vol/vol), 3 min",+
same,croissance,"[2]; Conc. 0,05 % (vol/vol), 5 min",+
same,croissance,"[2]; Conc. 0,5 % (vol/vol), 5 min",+
same,croissance,"[2]; Conc. 0,05 % (vol/vol), 15 min",+
same,croissance,"[2]; Conc. 0,5 % (vol/vol), 15 min",+
same,croissance,"[2]; Conc. 0,05 % (vol/vol), 30 min",+
same,croissance,"[2]; Conc. 0,5 % (vol/vol), 30 min",+
same,croissance,"[2]; Conc. 0,05 % (vol/vol), 60 min",+
same,croissance,"[2]; Conc. 0,5 % (vol/vol), 60 min",+
same,croissance,"[2]; Conc. 1 % (vol/vol), 1 min",+
same,croissance,"[2]; Conc. 1 % (vol/vol), 3 min",+
same,croissance,"[2]; Conc. 1 % (vol/vol), 5 min",+
same,croissance,"[2]; Conc. 1 % (vol/vol), 15 min",+
same,croissance,"[2]; Conc. 1 % (vol/vol), 30 min",+
same,croissance,"[2]; Conc. 1 % (vol/vol), 60 min",+
same,croissance,"[2]; Conc. 5 % (vol/vol), 1 min",+
same,croissance,"[2]; Conc. 5 % (vol/vol), 3 min",+
same,croissance,"[2]; Conc. 5 % (vol/vol), 5 min",+
same,croissance,"[2]; Conc. 5 % (vol/vol), 15 min",+
same,croissance,"[2]; Conc. 5 % (vol/vol), 30 min",+
same,croissance,"[2]; Conc. 5 % (vol/vol), 60 min",+
same,croissance,"[2]; Conc. 10 % (vol/vol), 1 min",+
same,croissance,"[2]; Conc. 10 % (vol/vol), 3 min",+
same,croissance,"[2]; Conc. 10 % (vol/vol), 5 min",+
same,croissance,"[2]; Conc. 10 % (vol/vol), 15 min",+
same,croissance,"[2]; Conc. 10 % (vol/vol), 30 min",+
same,croissance,"[2]; Conc. 10 % (vol/vol), 60 min",-
same,croissance,"[2]; Conc. 25 % (vol/vol), 1 min",+
same,croissance,"[2]; Conc. 25 % (vol/vol), 3 min",+
same,croissance,"[2]; Conc. 25 % (vol/vol), 5 min",+
same,croissance,"[2]; Conc. 25 % (vol/vol), 15 min",+
same,croissance,"[2]; Conc. 25 % (vol/vol), 30 min",-
same,croissance,"[2]; Conc. 25 % (vol/vol), 60 min",-
same,croissance,"[3]; Conc. 0,1 % (vol/vol), 1 min",+
same,croissance,"[3]; Conc. 0,1 % (vol/vol), 3 min",+
same,croissance,"[3]; Conc. 0,1 % (vol/vol), 5 min",+
same,croissance,"[3]; Conc. 0,1 % (vol/vol), 15 min",+
same,croissance,"[3]; Conc. 0,1 % (vol/vol), 30 min",+
same,croissance,"[3]; Conc. 0,1 % (vol/vol), 60 min",+
same,croissance,"[3]; Conc. 0,05 % (vol/vol), 1 min",+
same,croissance,"[3]; Conc. 0,5 % (vol/vol), 1 min",+
same,croissance,"[3]; Conc. 0,05 % (vol/vol), 3 min",+
same,croissance,"[3]; Conc. 0,5 % (vol/vol), 3 min",+
same,croissance,"[3]; Conc. 0,05 % (vol/vol), 5 min",+
same,croissance,"[3]; Conc. 0,5 % (vol/vol), 5 min",+
same,croissance,"[3]; Conc. 0,05 % (vol/vol), 15 min",+
same,croissance,"[3]; Conc. 0,5 % (vol/vol), 15 min",+
same,croissance,"[3]; Conc. 0,05 % (vol/vol), 30 min",+
same,croissance,"[3]; Conc. 0,5 % (vol/vol), 30 min",+
same,croissance,"[3]; Conc. 0,05 % (vol/vol), 60 min",+
same,croissance,"[3]; Conc. 0,5 % (vol/vol), 60 min",+
same,croissance,"[3]; Conc. 1 % (vol/vol), 1 min",+
same,croissance,"[3]; Conc. 1 % (vol/vol), 3 min",+
same,croissance,"[3]; Conc. 1 % (vol/vol), 5 min",+
same,croissance,"[3]; Conc. 1 % (vol/vol), 15 min",+
same,croissance,"[3]; Conc. 1 % (vol/vol), 30 min",+
same,croissance,"[3]; Conc. 1 % (vol/vol), 60 min",+
same,croissance,"[3]; Conc. 5 % (vol/vol), 1 min",+
same,croissance,"[3]; Conc. 5 % (vol/vol), 3 min",+
same,croissance,"[3]; Conc. 5 % (vol/vol), 5 min",+
same,croissance,"[3]; Conc. 5 % (vol/vol), 15 min",+
same,croissance,"[3]; Conc. 5 % (vol/vol), 30 min",-
same,croissance,"[3]; Conc. 5 % (vol/vol), 60 min",-
same,croissance,"[3]; Conc. 10 % (vol/vol), 1 min",+
same,croissance,"[3]; Conc. 10 % (vol/vol), 3 min",+
same,croissance,"[3]; Conc. 10 % (vol/vol), 5 min",+
same,croissance,"[3]; Conc. 10 % (vol/vol), 15 min",-
same,croissance,"[3]; Conc. 10 % (vol/vol), 30 min",-
same,croissance,"[3]; Conc. 10 % (vol/vol), 60 min",-
same,croissance,"[3]; Conc. 25 % (vol/vol), 1 min",+
same,croissance,"[3]; Conc. 25 % (vol/vol), 3 min",+
same,croissance,"[3]; Conc. 25 % (vol/vol), 5 min",+
same,croissance,"[3]; Conc. 25 % (vol/vol), 15 min",-
same,croissance,"[3]; Conc. 25 % (vol/vol), 30 min",-
same,croissance,"[3]; Conc. 25 % (vol/vol), 60 min",-

# Source: patent EP0555116B1, “Compositions based on antiseptics and their applications” (HUTCHINSON, priority 1992, dated 1993)
